Where “and” joins values, the source holds several entries; their conditions need not be identical. Equal entries are not always repeated. Inconclusive results and toxic doses are left out. The calls were made as follows: active = survival T/C of 150% or more; inactive = T/C below 125% in these data. Non-standard residues stand in square brackets, D forms with d. Residues, ends and D or L forms follow the SMILES beside them. ξ: configuration not given here. ξF = NC(Cc1ccccc1)C(=O)O; Ac5c = NC1(C(=O)O)CCCC1
System: CD2F1 mice, L1210 leukemia ip, survival T/C
Assay: NCI In Vivo Anticancer Drug Screen. Data for tumor model L1210 Leukemia (intraperitoneal) in CD2F1 (CDF1) mice
Conditions: higher = longer survival
Summary of the method: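 Implant tumor; dose compound or vehicle; measure endpoint in both groups; report treated divided by control.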

[1] = endpoint: mean survival time, dose: 100.0 mg/kg/injection, schedule: Q01DX009 (ip), vehicle: saline with Tween-80
[2] = endpoint: mean survival time, dose: 200.0 mg/kg/injection, schedule: Q01DX009 (ip), vehicle: saline with Tween-80
[3] = endpoint: mean survival time, dose: 400.0 mg/kg/injection, schedule: Q01DX009 (ip), vehicle: saline with Tween-80
[4] = endpoint: mean survival time, dose: 25.0 mg/kg/injection, schedule: Q01DX009 (ip), vehicle: saline with Tween-80
[5] = endpoint: mean survival time, dose: 50.0 mg/kg/injection, schedule: Q01DX009 (ip), vehicle: saline with Tween-80
[6] = endpoint: mean survival time, dose: 100.0 mg/kg/injection, schedule: Q04DX002 (ip), vehicle: saline with Tween-80
[7] = endpoint: mean survival time, dose: 200.0 mg/kg/injection, schedule: Q04DX002 (ip), vehicle: saline with Tween-80
[8] = endpoint: mean survival time, dose: 200.0 mg/kg/injection, schedule: Q04DX003 (ip), vehicle: saline with Tween-80
[9] = endpoint: mean survival time, dose: 400.0 mg/kg/injection, schedule: Q04DX002 (ip), vehicle: saline with Tween-80
[10] = endpoint: mean survival time, dose: 400.0 mg/kg/injection, schedule: Q04DX003 (ip), vehicle: saline with Tween-80
[11] = endpoint: mean survival time, dose: 100.0 mg/kg/injection, schedule: Q04DX003 (ip), vehicle: saline
[12] = endpoint: mean survival time, dose: 200.0 mg/kg/injection, schedule: Q04DX003 (ip), vehicle: saline
[13] = endpoint: mean survival time, dose: 100.0 mg/kg/injection, schedule: Q01DX001 (ip), vehicle: saline
[14] = endpoint: mean survival time, dose: 200.0 mg/kg/injection, schedule: Q01DX001 (ip), vehicle: saline
[15] = endpoint: mean survival time, dose: 100.0 mg/kg/injection, schedule: Q01DX009 (ip), vehicle: other
[16] = endpoint: mean survival time, dose: 200.0 mg/kg/injection, schedule: Q01DX009 (ip), vehicle: other
[17] = endpoint: mean survival time, dose: 50.0 mg/kg/injection, schedule: Q01DX009 (ip), vehicle: Klucel (hydroxypropylcellulose) (HPC)
[18] = endpoint: mean survival time, dose: 100.0 mg/kg/injection, schedule: Q01DX009 (ip), vehicle: Klucel (hydroxypropylcellulose) (HPC)
[19] = endpoint: mean survival time, dose: 200.0 mg/kg/injection, schedule: Q01DX009 (ip), vehicle: Klucel (hydroxypropylcellulose) (HPC)
[20] = endpoint: mean survival time, dose: 50.0 mg/kg/injection, schedule: Q01DX009 (ip), vehicle: saline

Measured: T/C

CCC(CNCC(=O)O)(C(=O)O)C(=O)O
inactive: endpoint: mean survival time, dose: 12.5 mg/kg/injection, schedule: Q04DX002 (ip), vehicle: saline with Tween-80 104 % of control | endpoint: mean survival time, dose: 25.0 mg/kg/injection, schedule: Q04DX002 (ip), vehicle: saline with Tween-80 93 % of control | endpoint: mean survival time, dose: 50.0 mg/kg/injection, schedule: Q04DX002 (ip), vehicle: saline with Tween-80 111 % of control

Cc1sc(N)c(C#N)c1C
inactive: endpoint: mean survival time, dose: 100.0 mg/kg/injection, schedule: Q01DX009 (ip), vehicle: saline sonified 102 % of control | endpoint: mean survival time, dose: 200.0 mg/kg/injection, schedule: Q01DX009 (ip), vehicle: saline sonified 102 % of control | endpoint: mean survival time, dose: 400.0 mg/kg/injection, schedule: Q01DX009 (ip), vehicle: saline sonified 103 % of control

COc1ccc(F)cc1NC(=O)OC(C)C
inactive: [1] 92 % of control | [2] 96 % of control | [3] 96 % of control

CCOC(=O)c1ccc(Cl)cc1
inactive: [4] 101 % of control | [5] 102 % of control | [1] 95 % of control

O=S1(=O)CCC2CCCCC2C1 (centres undefined)
inactive: endpoint: mean survival time, dose: 12.5 mg/kg/injection, schedule: Q04DX003 (ip), vehicle: saline with Tween-80 103 % of control | endpoint: mean survival time, dose: 25.0 mg/kg/injection, schedule: Q04DX003 (ip), vehicle: saline with Tween-80 100 % of control

COc1cc2c(cc1OC)C(c1cc(OC)c(OC)c(OC)c1)=NCC2
inactive: [6] 104 % of control | [7] 104 % of control | [8] 87 % of control | [9] 100 % of control | [10] 87 % of control

CO/N=C(\N)c1ncn(C2OC3COP(=O)(O)OC3C2O)c1N (centres undefined)
inactive: endpoint: median survival time, dose: 49.8 mg/kg/injection, schedule: Q01DX005 (ip), vehicle: saline 98 % of control | endpoint: median survival time, dose: 99.5 mg/kg/injection, schedule: Q01DX005 (ip), vehicle: saline 100 % of control | endpoint: median survival time, dose: 199.1 mg/kg/injection, schedule: Q01DX005 (ip), vehicle: saline 96 % of control

CC(C)(C(=O)O)C(=O)O
inactive: endpoint: mean survival time, dose: 50.0 mg/kg/injection, schedule: Q04DX003 (ip), vehicle: saline 97 % of control | [11] 94 % of control | [12] 100 % of control

Cc1cc(Cl)ccc1NC(=O)Nc1nccs1
inactive: endpoint: mean survival time, dose: 12.5 mg/kg/injection, schedule: Q01DX009 (ip), vehicle: saline with Tween-80 98 % of control | [4] 98 % of control | [5] 95 % of control | [1] 95 % of control | [2] 100 % of control

O=C(O)c1cccc(F)c1Br
inactive: [6] 95 % of control | [7] 95 % of control | [9] 87 % of control

C1C[N-]CC[N-]1.[Cl][Pt+2][Cl]
inactive: endpoint: mean survival time, dose: 7.8 mg/kg/injection, schedule: Q04DX003 (ip), vehicle: saline with Tween-80 97 % of control | endpoint: mean survival time, dose: 62.5 mg/kg/injection, schedule: Q04DX003 (ip), vehicle: saline with Tween-80 90 % of control | endpoint: mean survival time, dose: 125.0 mg/kg/injection, schedule: Q04DX003 (ip), vehicle: saline with Tween-80 94 % of control

C[Si](O)(O)CCCCNC(=O)/C=C\C(=O)O
inactive: endpoint: mean survival time, dose: 100.0 mg/kg/injection, schedule: Q04DX003 (ip), vehicle: other 89 % of control | endpoint: mean survival time, dose: 200.0 mg/kg/injection, schedule: Q04DX003 (ip), vehicle: other 93 % of control | endpoint: mean survival time, dose: 400.0 mg/kg/injection, schedule: Q04DX003 (ip), vehicle: other 89 % of control

COC1=C(OC)C(=O)C(C/C=C(\C)CC/C=C(\C)CC/C=C(\C)CC/C=C(\C)CC/C=C(\C)CCC=C(C)C)=C(C)C1=O
inactive: [13] 102 % of control | [14] 103 % of control | endpoint: mean survival time, dose: 400.0 mg/kg/injection, schedule: Q01DX001 (ip), vehicle: saline 100 % of control

CSc1nc(NC(C)C)nc(NC(C)C)n1
inactive: [5] 117 % of control | [1] 109 % of control | [11] 92 % of control | [2] 111 % of control | [12] 103 % of control

O=C1OC2C(Cl)CC(Cl)CC2C=C1c1cccc([N+](=O)[O-])c1 (centres undefined)
inactive: [1] 90 % of control | [6] 90 % of control | [2] 94 % of control | [7] 90 % of control | [3] 105 % of control | [9] 94 % of control

CCOC(c1ccccc1)(c1ccccc1)c1ccccc1
inactive: [15] 98 % of control | [16] 102 % of control | endpoint: mean survival time, dose: 400.0 mg/kg/injection, schedule: Q01DX009 (ip), vehicle: other 96 % of control

CCc1c(N=O)c(-c2ccccc2)n(O)[n+]1[O-]
inactive: [17] 104 % of control | [18] 101 % of control | [19] 95 % of control

O=C1CC2(C(=O)N1CN1CCCCC1)c1ccccc1-c1ccccc12
active: endpoint: mean survival time, dose: 400.0 mg/kg/injection, schedule: Q01DX009 (ip), vehicle: Klucel (hydroxypropylcellulose) (HPC) 158 % of control
inactive: endpoint: mean survival time, dose: 12.5 mg/kg/injection, schedule: Q01DX009 (ip), vehicle: Klucel (hydroxypropylcellulose) (HPC) 94 % of control and 102 % of control | endpoint: mean survival time, dose: 25.0 mg/kg/injection, schedule: Q01DX009 (ip), vehicle: Klucel (hydroxypropylcellulose) (HPC) 91 % of control and 105 % of control | [17] 98 % of control and 100 % of control | [18] 94 % of control and 102 % of control | [19] 100 % of control

CCOC(NCc1ccc(OC)c(OC)c1)OCC
inactive: [13] 98 % of control | [14] 98 % of control

N#C/C(=C/Cc1ccccc1)Nc1ccccc1
inactive: [1] 97 % of control | endpoint: mean survival time, dose: 100.0 mg/kg/injection, schedule: Q04DX003 (ip), vehicle: saline sonified 97 % of control | [2] 101 % of control | endpoint: mean survival time, dose: 200.0 mg/kg/injection, schedule: Q04DX003 (ip), vehicle: saline sonified 97 % of control | [3] 87 % of control | endpoint: mean survival time, dose: 400.0 mg/kg/injection, schedule: Q04DX003 (ip), vehicle: saline sonified 96 % of control

O=C(Nc1ccc(Br)cn1)Nc1cccc(Cl)c1Cl
inactive: [5] 94 % of control | [1] 101 % of control | [2] 105 % of control

NC(Cc1ccccc1)C(=O)NC1(C(=O)O)CCCC1 (centres undefined) (H-[ξF]-[Ac5c]-OH)
inactive: [20] 100 % of control | endpoint: mean survival time, dose: 100.0 mg/kg/injection, schedule: Q01DX009 (ip), vehicle: saline 107 % of control | endpoint: mean survival time, dose: 200.0 mg/kg/injection, schedule: Q01DX009 (ip), vehicle: saline 107 % of control

CCCC(C#CCN(C)C)N(C)C (centres undefined)
inactive: endpoint: mean survival time, dose: 12.5 mg/kg/injection, schedule: Q01DX009 (ip), vehicle: saline 97 % of control | endpoint: mean survival time, dose: 25.0 mg/kg/injection, schedule: Q01DX009 (ip), vehicle: saline 97 % of control | [20] 98 % of control

COC1C(O)C(C)OC(OC2C(Oc3cccc4c(O)c5c(=O)oc6ccc(C)c7c(=O)oc(c34)c5c67)OC(C)C(O)C2O)C1O (centres undefined)
inactive: endpoint: mean survival time, dose: 5.0 mg/kg/injection, schedule: Q01DX009 (ip), vehicle: saline with Tween-80 116 % of control | endpoint: mean survival time, dose: 10.0 mg/kg/injection, schedule: Q01DX009 (ip), vehicle: saline with Tween-80 115 % of control | endpoint: mean survival time, dose: 20.0 mg/kg/injection, schedule: Q01DX009 (ip), vehicle: saline with Tween-80 116 % of control | endpoint: mean survival time, dose: 80.0 mg/kg/injection, schedule: Q01DX009 (ip), vehicle: saline with Tween-80 123 % of control

N/N=C\C(=N/N)C(O)C(O)C(O)CO (centres undefined)
inactive: endpoint: mean survival time, dose: 100.0 mg/kg/injection, schedule: Q01DX001 (ip), vehicle: saline with Tween-80 87 % of control

Nc1c(Cl)c(Cl)cc(Cl)c1Cl
inactive: endpoint: mean survival time, dose: 100.0 mg/kg/injection, schedule: Q04DX003 (ip), vehicle: saline with Tween-80 97 % of control | [8] 102 % of control | [10] 92 % of control

Nc1cc(=S)c2nnn(C3OC(CO)C(O)C3O)c2[nH]1 (centres undefined)
inactive: endpoint: mean survival time, dose: 25.0 mg/kg/injection, schedule: Q01DX009 (ip), vehicle: water 100 % of control | endpoint: mean survival time, dose: 50.0 mg/kg/injection, schedule: Q01DX009 (ip), vehicle: water 104 % of control | endpoint: mean survival time, dose: 100.0 mg/kg/injection, schedule: Q01DX009 (ip), vehicle: water 93 % of control | endpoint: mean survival time, dose: 200.0 mg/kg/injection, schedule: Q01DX009 (ip), vehicle: water 86 % of control | endpoint: mean survival time, dose: 400.0 mg/kg/injection, schedule: Q01DX009 (ip), vehicle: water 89 % of control

Cc1ccc(CN(C)N=Nc2ccc(C(=O)O)cc2)cc1
inactive: endpoint: mean survival time, dose: 25.0 mg/kg/injection, schedule: Q01DX009 (ip), vehicle: other 91 % of control | endpoint: mean survival time, dose: 50.0 mg/kg/injection, schedule: Q01DX009 (ip), vehicle: other 87 % of control | [15] 91 % of control | [16] 87 % of control
